Measured values published in patent US8822698B2, “Aminoacid derivatives, their process of preparation and their therapeutical uses as inhibitors of oncogenic signals by the Met family” (Universite D'Aix-Marseille, priority 2009, dated 2014).
Read-outs that look alike come from different tables or passages of the source.

Experiments:
[1] = test system: Met-triggered cell scattering, MDCK cells; assay: HGF-induced MDCK cell scattering assay; type: cell-based; settings: Canis lupus familiaris
Procedure: (§1) MDCK cells were grown in Dulbecco's modified Eagle's medium (DMEM) (Gibco BRL) containing 4 mM L-glutamine and supplemented with 2% (v/v) foetal bovine serum (Gibco BRL), 100 U/mL penicillin, and 100 μg/mL streptomycin. Cells were plated at a density of 1000 cells per well in 24-well microplates and allowed to settle overnight at 37° C. in a humidified atmosphere of 5% CO2 prior to treatments. MCF10A human breast cells, MDA-MB231 human breast cancer cells, GTL-16 human gastric carcinoma cells, HepG2 human hepatocellular carcinoma cells, U-87 human glioblastoma-astrocytoma cells and LLC Lewis lung carcinoma cells were grown in RPMI medium (Gibco BRL) containing 4 mM L-glutamine and supplemented with 2% (v/v) foetal bovine serum (Gibco BRL), 100 U/mL penicillin, and 100 μg/mL streptomycin and kept at 37° C. in a humidified atmosphere of 5% CO2.
(§2) For scattering assays, MDCK cells were pre-incubated with compounds for 2 hours at 0.1-100 μM concentrations at 37° C. in a humidified atmosphere of 5% CO2, followed by 24 hr stimulation with 20 ng/ml HGF (R&D Systems), as previously described (Patane et al., Biochem Biophys Res Commun 375, 184-189, 2008). The cells were further incubated at 37° C. in an atmosphere of 5% CO2 for 24-48 hours, washed with phosphate-buffered saline (PBS; Gibco BRL), and fixed in PFA (Sigma). The quantification of scattering response was performed by counting the number of cells with scattered morphology in 30 independent colonies. The […] corresponds to the concentration of compounds leading to a 50% inhibition of Met-triggered cell scattering. Active compounds were assayed to impair scattering response also on human breast MCF10A cells following the same procedure. For survival assays, GTL-16, HepG2 and U-87 cells were cultured in serum-free media for 24 hours prior to compound addition for 48 hours. Viability was assessed with the Cell Titer Glo Luminescent Assay (Promega). For in vitro tumorigenesis, soft agar growth assays were preformed using GTL-16, HepG2, and U-87 cells, as previously described (Patane et al., Cancer Res 66, 4750-4757, 2006).
Compounds were first submitted to a biological screening of cell motility, namely scattering response. MDCK epithelial cells acquire a “scattered phenotype” following stimulation by the Met ligand, HGF (Chan et al., J Biomol Screen. 13, 847-854, 2008; Corso et al., Trends Mol Med 11, 284-292, 2005; Patane et al., Biochem Biophys Res Commun 375, 184-189, 2008), allowing direct evaluation of compounds on Met functions. The Met inhibitor […] was used as control in all assays (Schiering et al., Proc Natl Acad Sci USA 100, 12654-12659, 2003).

MDCK cells = assay: Toxicity observed in the cell scattering screening; type: cell-based
Procedure: as §2
Compounds of examples 1 (XIII), 2 (XIV), 4 (XVI), 5 (XVII), and 6 (XVIII) in particular elicit inhibitory activity on Met-triggered cell scattering. […] The SU11274 (Met inhibitor; Sugen) was used as reference compound. […] These findings were further supported by analysing the inhibitory activity of compounds on breast cells. […] Altogether, these studies identify a new class of compounds of general formula (I), which are able to interfere with Met-triggered cell scattering.

GTL-16 cells [2] = assay: Soft agar anchorage-independent growth (in vitro tumorigenesis), GTL-16; type: cell-based, human; settings: Homo sapiens; soft agar growth, GTL-16
Procedure: as §1
as §2, with “2006). […]” for “2006).”

GTL-16 cells [3] = settings: Zou et al., 2007; cited from earlier work
HepG2 cells = assay: Soft agar anchorage-independent growth (in vitro tumorigenesis), HepG2; type: cell-based; settings: Homo sapiens, read-out: HepG2 IC 50
Procedure: as §1
For scattering assays, MDCK cells were pre-incubated with compounds for 2 hours at 0.1-100 μM concentrations at 37° C. in a humidified atmosphere of 5% CO2, followed by 24 hr stimulation with 20 ng/ml HGF (R&D Systems), as previously described (Patane et al., Biochem Biophys Res Commun 375, 184-189, 2008). […] The quantification of scattering response was performed by counting the number of cells with scattered morphology in 30 independent colonies. […] Viability was assessed with the Cell Titer Glo Luminescent Assay (Promega). […]

[4] = test system: Met phosphorylation, HepG2 cells; assay: Met phosphorylation upon HGF stimulation in HepG2 cells; type: cell-based, human
Procedure: After starvation, cells were pretreated with inhibitors, then stimulated with HGF, and total extracts were analyzed as described (Maina et al., Mol Cell 7, 1293-1306, 2001). Antibodies used were anti-tubulin (Sigma), anti-phospho Y1234-1235-Met, anti-Akt, anti-phospho-Akt, anti-phospho-Gab1, anti phosphor-ErbBs, anti-phospho-PDGFR, anti-PDGFRs, anti-ERKs (Cell Signaling), anti-ErbBs, anti-Met (Santa Cruz).
Activation of Met by HGF can be biochemically evaluated by following its phosphorylation levels and activation of downstream targets. We started to biochemically characterise the inhibitory properties of identified compounds by following Met phosphorylation and its downstream targets in HepG2 cells. […] These findings were further supported using other cell lines, such as MDA-MB231 human breast cancer cells (FIG. 2).

[5] = MDCK cells, 20 ng/ml HGF, read-out: IC50 scattering inhibition

Row | SMILES | Toxicity (MDCK cells; Table 1, scattering screening) [µM] | IC50 [1, 5] [µM] | further results
1 | C[C@@H](NC(=O)Cc1cc(F)cc(F)c1)C(=O)Nc1ccc(-c2cn3c4c(sc3n2)CCCC4)cc1 [reference compound] | – | – | IC50 ([1]; MDCK, comparative compound, same test, read-out: Scattering inhibition): 10 µM; Toxicity (MDCK cells; comparative compound, toxic at this concentration): at 100 μM
2 | Cc1cc(C)cc(CC(=O)N[C@H](Cc2ccccc2)C(=O)Nc2ccc(-c3cn4c(n3)sc3ccccc34)cc2)c1 [Example 2, (R)-2-(3,5-dimethylphenylacetamido)-3-phenyl-N-[4-(imidazo[2,1-b]benzothiazol-2-yl)phenyl]propanamide] | >100 | – | –
3 | O=C(Cc1cc(F)cc(F)c1)N[C@@H](Cc1ccccc1)C(=O)Nc1ccc(-c2cn3c(n2)sc2ccccc23)cc1 [Example 6] | >100 | – | –
4 | O=C(Cc1cc(C(F)(F)F)cc(C(F)(F)F)c1)N[C@H](Cc1ccccc1)C(=O)Nc1ccc(-c2cn3c(n2)sc2ccccc23)cc1 [Example 5, (R)-2-(3,5-bis(trifluoromethyl)phenylacetamido)-3-phenyl-N-[4-(imidazo[2,1-b]benzothiazol-2-yl)phenyl]propanamide] | >50 | 0.206 | IC50 (GTL-16 cells [2]): 1.19 µM
5 | Cc1[nH]c(/C=C2\C(=O)Nc3ccc(S(=O)(=O)N(C)c4cccc(Cl)c4)cc32)c(C)c1C(=O)N1CCN(C)CC1 [SU11274, (3Z)—N-(3-Chlorophenyl)-3-({3,5-dimethyl-4-[(4-methylpiperazin-1-yl)carbonyl]-1H-pyrrol-2-yl}methylene)-N-methyl-2-oxo-2,3-dihydro-1H-indole-5-sulfonamide, reference compound] | – | 0.251 | Soft-agar growth of GTL-16 cells (GTL-16 cells [3]): impaired
6 | Cc1cc(C)cc(CC(=O)N[C@@H](Cc2ccccc2)C(=O)Nc2ccc(-c3cn4c(n3)sc3ccccc34)cc2)c1 [Example 1, (S)-2-(3,5-dimethylphenylacetamido)-3-phenyl-N-[4-(imidazo[2,1-b]benzothiazol-2-yl)phenyl]propanamide] | >100 | – | IC50 (HepG2 cells): 2.73 µM; Met phosphorylation [4]: significantly reduced
